Measured values published in PubChem BioAssay AID328 (DTP/NCI, 2004).
“And” between values parts separate entries of the source, which are not always exact repeats. Identical values can stand only once. Inconclusive results and toxic doses are left out.

Test system: BDF1 mice, P388 leukemia ip, median survival T/C
Experiment: NCI In Vivo Anticancer Drug Screen. Data for tumor model P388 Leukemia (intraperitoneal) in B6D2F1 (BDF1) mice
Settings: endpoint: median survival time, higher = longer survival
In short: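 Mice carrying the transplantable tumour receive compound or vehicle. Survival is followed in each arm, and the treated measure is divided by the vehicle measure.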

[1] = dose: 25.0 mg/kg/injection, schedule: Q04DX003 (ip), vehicle: saline with Tween-80
[2] = dose: 100.0 mg/kg/injection, schedule: Q04DX003 (ip), vehicle: saline with Tween-80
[3] = dose: 200.0 mg/kg/injection, schedule: Q04DX003 (ip), vehicle: saline with Tween-80
[4] = dose: 400.0 mg/kg/injection, schedule: Q04DX003 (ip), vehicle: saline with Tween-80
[5] = dose: 25.0 mg/kg/injection, schedule: Q01DX009 (ip), vehicle: Klucel (hydroxypropylcellulose) (HPC)
[6] = dose: 100.0 mg/kg/injection, schedule: Q01DX009 (ip), vehicle: saline
[7] = dose: 50.0 mg/kg/injection, schedule: Q01DX009 (ip), vehicle: saline with Tween-80
[8] = dose: 100.0 mg/kg/injection, schedule: Q01DX009 (ip), vehicle: saline with Tween-80
[9] = dose: 200.0 mg/kg/injection, schedule: Q01DX009 (ip), vehicle: saline with Tween-80
[10] = dose: 25.0 mg/kg/injection, schedule: Q04DX003 (ip), vehicle: saline
[11] = dose: 100.0 mg/kg/injection, schedule: Q04DX003 (ip), vehicle: saline
[12] = dose: 200.0 mg/kg/injection, schedule: Q04DX003 (ip), vehicle: saline
[13] = dose: 400.0 mg/kg/injection, schedule: Q01DX009 (ip), vehicle: saline with Tween-80
[14] = dose: 50.0 mg/kg/injection, schedule: Q01DX005 (ip), vehicle: saline with Tween-80
[15] = dose: 100.0 mg/kg/injection, schedule: Q01DX005 (ip), vehicle: saline with Tween-80
[16] = dose: 200.0 mg/kg/injection, schedule: Q01DX005 (ip), vehicle: saline with Tween-80
[17] = dose: 50.0 mg/kg/injection, schedule: Q01DX009 (ip), vehicle: saline
[18] = dose: 12.5 mg/kg/injection, schedule: Q01DX009 (ip), vehicle: saline
[19] = dose: 25.0 mg/kg/injection, schedule: Q01DX009 (ip), vehicle: saline
[20] = dose: 50.0 mg/kg/injection, schedule: Q04DX003 (ip), vehicle: saline with Tween-80

COc1cccc2c1C(=O)c1c(O)c3c(c(O)c1C2=O)C[C@@](O)(/C(C)=N/NC(=O)c1ccccc1)C[C@@H]3OC1CC(N)C(O)C(C)O1 (some centres not stated)
T/C (dose: 0.38 mg/kg/injection, schedule: Q01DX009 (ip), vehicle: water): 166 % of control | T/C (dose: 0.75 mg/kg/injection, schedule: Q01DX009 (ip), vehicle: water): 166 % of control | T/C (dose: 1.5 mg/kg/injection, schedule: Q01DX009 (ip), vehicle: saline): 216 % of control | T/C (dose: 1.5 mg/kg/injection, schedule: Q01DX009 (ip), vehicle: water): 123 % of control and 217 % of control | T/C (dose: 3.0 mg/kg/injection, schedule: Q01DX009 (ip), vehicle: saline): 250 % of control | T/C (dose: 3.0 mg/kg/injection, schedule: Q01DX009 (ip), vehicle: water): 245 % of control and 110 % of control | T/C (dose: 3.0 mg/kg/injection, schedule: Q04DX003 (ip), vehicle: saline): 226 % of control | T/C (dose: 6.0 mg/kg/injection, schedule: Q01DX009 (ip), vehicle: saline): 166 % of control | T/C (dose: 6.0 mg/kg/injection, schedule: Q01DX009 (ip), vehicle: water): 164 % of control | T/C (dose: 6.0 mg/kg/injection, schedule: Q04DX003 (ip), vehicle: saline): 208 % of control | T/C (dose: 6.5 mg/kg/injection, schedule: Q04DX003 (ip), vehicle: water): 171 % of control | T/C (dose: 10.8 mg/kg/injection, schedule: Q04DX003 (ip), vehicle: water): 165 % of control | T/C (dose: 12.0 mg/kg/injection, schedule: Q01DX009 (ip), vehicle: saline): 95 % of control | T/C (dose: 12.0 mg/kg/injection, schedule: Q04DX003 (ip), vehicle: saline): 195 % of control | T/C (dose: 18.0 mg/kg/injection, schedule: Q04DX003 (ip), vehicle: water): 103 % of control

CC(/C=C/C1(C)C(C)CCC(=O)C1C)=C\Cc1c(O)c(Cl)c(C)c(C=O)c1O (configuration not stated)
T/C (dose: 12.5 mg/kg/injection, schedule: Q04DX003 (ip), vehicle: saline with Tween-80): 92 % of control | T/C [1]: 90 % of control

O=c1[nH]cn[nH]1
T/C (dose: 100.0 mg/kg/injection, schedule: Q01DX001 (ip), vehicle: saline sonified): 122 % of control | T/C (dose: 200.0 mg/kg/injection, schedule: Q01DX001 (ip), vehicle: saline sonified): 95 % of control | T/C (dose: 400.0 mg/kg/injection, schedule: Q01DX001 (ip), vehicle: saline sonified): 90 % of control

CN(CO)c1nc(N(C)CO)nc(N(C)CO)n1
T/C (dose: 12.5 mg/kg/injection, schedule: Q01DX005 (ip), vehicle: saline): 104 % of control | T/C (dose: 25.0 mg/kg/injection, schedule: Q01DX005 (ip), vehicle: saline): 113 % of control | T/C (dose: 100.0 mg/kg/injection, schedule: Q01DX005 (ip), vehicle: saline): 155 % of control

CCOC(=O)c1cc(CC)sc1N
T/C [2]: 95 % of control | T/C [3]: 108 % of control | T/C [4]: 108 % of control

COC1=CC=C2C3Cc4ccc(OC)c(O)c4C2(C1)CN3C (configuration not stated)
T/C (dose: 3.12 mg/kg/injection, schedule: Q01DX009 (ip), vehicle: Klucel (hydroxypropylcellulose) (HPC)): 87 % of control | T/C (dose: 6.25 mg/kg/injection, schedule: Q01DX009 (ip), vehicle: Klucel (hydroxypropylcellulose) (HPC)): 87 % of control | T/C [5]: 100 % of control

Nc1ccc(CCc2ccc(Cl)cc2S(=O)(=O)F)c(Cl)c1
T/C [6]: 95 % of control | T/C (dose: 200.0 mg/kg/injection, schedule: Q01DX009 (ip), vehicle: saline): 91 % of control

C/C(Br)=C(/Br)C(=O)O
T/C [7]: 94 % of control | T/C [8]: 97 % of control | T/C [9]: 87 % of control

C[n+]1csc(=S)[nH]1
T/C [10]: 86 % of control | T/C (dose: 50.0 mg/kg/injection, schedule: Q04DX003 (ip), vehicle: saline): 95 % of control | T/C [11]: 100 % of control

CC(=O)OC1CCC2(C)CCCC(O)C2(O)C1 (configuration not stated)
T/C [8]: 103 % of control | T/C [11]: 110 % of control | T/C [12]: 90 % of control | T/C [13]: 103 % of control | T/C (dose: 400.0 mg/kg/injection, schedule: Q04DX003 (ip), vehicle: saline): 110 % of control

CC1(C)OC(C)(C)c2c1nnc(-c1cccc([N+](=O)[O-])c1)[n+]2[O-]
T/C [14]: 88 % of control | T/C [15]: 93 % of control | T/C [16]: 104 % of control

COc1ccc(CC2Cc3cc(OC)c(OC)cc3C=N2)cc1OC (configuration not stated)
T/C [17]: 96 % of control | T/C [6]: 107 % of control | T/C [11]: 103 % of control | T/C [12]: 111 % of control

Cc1ccc(C(=O)CCCCCCCCC(=O)c2ccc(C)cc2)cc1
T/C [2]: 100 % of control | T/C [3]: 90 % of control | T/C [4]: 100 % of control

COC(=O)C(CCSC)NC(=O)CNC(=O)OC(C)(C)C (configuration not stated)
T/C [14]: 100 % of control | T/C [15]: 105 % of control | T/C [16]: 102 % of control

Cc1ccc(S(=O)(=O)/C=C(/I)c2ccccc2)cc1
T/C (dose: 6.25 mg/kg/injection, schedule: Q01DX009 (ip), vehicle: saline with Tween-80): 124 % of control | T/C (dose: 12.5 mg/kg/injection, schedule: Q01DX009 (ip), vehicle: saline with Tween-80): 106 % of control | T/C (dose: 25.0 mg/kg/injection, schedule: Q01DX009 (ip), vehicle: saline with Tween-80): 106 % of control | T/C [7]: 92 % of control and 109 % of control | T/C [8]: 109 % of control | T/C [2]: 114 % of control | T/C [9]: 106 % of control | T/C [3]: 106 % of control | T/C [13]: 100 % of control | T/C [4]: 97 % of control

CC=C=CCN(C)Cc1ccccc1
T/C [18]: 120 % of control | T/C [19]: 100 % of control | T/C [17]: 105 % of control and 109 % of control

O=C(Nc1cccc2c1N(C(=O)c1ccco1)CCC2)c1ccco1
T/C [2]: 91 % of control | T/C [3]: 100 % of control | T/C [4]: 104 % of control

COc1cc[n+]([O-])cc1/C=C/c1c[n+]([O-])ccc1OC
T/C [1]: 94 % of control | T/C [20]: 119 % of control | T/C [2]: 103 % of control | T/C [3]: 108 % of control

O=[N+]([O-])c1ccc(-[n+]2nc(-c3ccccc3)nn2-c2ccc(I)cc2)cc1
T/C (dose: 12.5 mg/kg/injection, schedule: Q01DX009 (ip), vehicle: Klucel (hydroxypropylcellulose) (HPC)): 100 % of control | T/C (dose: 16.5 mg/kg/injection, schedule: Q04DX003 (ip), vehicle: Klucel (hydroxypropylcellulose) (HPC)): 90 % of control | T/C (dose: 16.5 mg/kg/injection, schedule: Q04DX003 (ip), vehicle: saline): 122 % of control | T/C [5]: 110 % of control | T/C (dose: 25.0 mg/kg/injection, schedule: Q04DX003 (ip), vehicle: Klucel (hydroxypropylcellulose) (HPC)): 109 % of control | T/C [10]: 109 % of control | T/C (dose: 37.5 mg/kg/injection, schedule: Q04DX003 (ip), vehicle: Klucel (hydroxypropylcellulose) (HPC)): 100 % of control | T/C (dose: 37.5 mg/kg/injection, schedule: Q04DX003 (ip), vehicle: saline): 122 % of control

Cc1ccc2scc3c4ccccc4nc-3c2c1
T/C (dose: 2.5 mg/kg/injection, schedule: Q01DX009 (ip), vehicle: saline): 94 % of control | T/C (dose: 5.0 mg/kg/injection, schedule: Q01DX009 (ip), vehicle: saline): 107 % of control | T/C (dose: 10.0 mg/kg/injection, schedule: Q01DX009 (ip), vehicle: saline): 114 % of control | T/C [18]: 113 % of control and 124 % of control | T/C (dose: 20.0 mg/kg/injection, schedule: Q01DX009 (ip), vehicle: saline): 94 % of control | T/C [19]: 113 % of control and 124 % of control | T/C (dose: 56.25 mg/kg/injection, schedule: Q04DX003 (ip), vehicle: saline): 104 % of control | T/C (dose: 75.0 mg/kg/injection, schedule: Q01DX009 (ip), vehicle: saline): 100 % of control and 104 % of control | T/C (dose: 112.5 mg/kg/injection, schedule: Q01DX009 (ip), vehicle: saline): 96 % of control | T/C (dose: 112.5 mg/kg/injection, schedule: Q04DX003 (ip), vehicle: saline): 113 % of control

O=c1c2ccccc2[nH]c2ccccc12
T/C [20]: 105 % of control | T/C [2]: 99 % of control | T/C [3]: 99 % of control | T/C [4]: 96 % of control
